In one data set the target is T1, CYP1A2 (Homo sapiens, UniProt P05177).
T1 construct: incubation mixtures containing pooled human liver microsomes (HLMs, XTreme 200, XenoTech); tissue XenoTech XTreme 200; host or cells: pooled human liver microsomes
T1 sequence (P05177 1-516): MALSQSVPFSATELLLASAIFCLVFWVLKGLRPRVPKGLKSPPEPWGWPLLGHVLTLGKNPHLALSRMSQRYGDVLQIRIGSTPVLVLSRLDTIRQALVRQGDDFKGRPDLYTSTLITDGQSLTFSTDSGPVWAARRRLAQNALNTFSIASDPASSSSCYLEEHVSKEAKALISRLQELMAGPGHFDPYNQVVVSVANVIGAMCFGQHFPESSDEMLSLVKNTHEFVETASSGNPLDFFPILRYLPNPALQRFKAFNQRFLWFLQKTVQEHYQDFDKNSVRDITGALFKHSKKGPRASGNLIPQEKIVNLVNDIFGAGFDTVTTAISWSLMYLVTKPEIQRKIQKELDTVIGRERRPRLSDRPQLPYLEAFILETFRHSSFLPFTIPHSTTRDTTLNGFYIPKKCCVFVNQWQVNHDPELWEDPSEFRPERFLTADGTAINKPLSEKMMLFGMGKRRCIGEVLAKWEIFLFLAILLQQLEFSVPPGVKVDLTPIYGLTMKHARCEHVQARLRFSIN
The data set can be described thus: Inhibition of CYP1A2-catalyzed phenacetin O-deethylation in pooled human liver microsomes. The format is in vitro ADME. The method, then:
(§1) The inhibitory potential of the five biflavonoids on the metabolism of nine P450 probe substrates was evaluated using previously developed methods with minor modifications. Biflavonoids were dissolved in methanol. The final concentration of methanol in the incubation mixture was 1.0% (v/v). We used these P450 probe substrates: phenacetin for CYP1A2, coumarin for CYP2A6, bupropion for CYP2B6, amodiaquine for CYP2C8, diclofenac for CYP2C9, omeprazole for CYP2C19, dextromethorphan for CYP2D6, chlorzoxazone for CYP2E1 and midazolam for CYP3A (Table 1). […] The reaction was stopped by adding 50 μL of ice-cold acetonitrile containing 7 nM trimipramine (internal standard, IS). After centrifugation at 18,000 g (5 min, 4 °C), aliquots of supernatants were analyzed by LC-MS/MS (Shimadzu LCMS 8060 system, Shimadzu, Kyoto, Japan). All microsomal incubations were conducted in triplicate. We used HLMs to determine the mechanisms and constants (Ki values) for […] A inhibition of CYP1A2, CYP2B6, CYP2C8, CYP2C9 and CYP3A. […] The substrates were used at concentrations approximately near to their respective Km values. […] The other conditions were the same as in the cytochrome P450 inhibition study. […] Phenomenex, Torrance, CA, USA) and analyzed using a Shimadzu LCMS 8060 triple-quadrupole mass spectrometer coupled with a Nexera X2 ultra high-performance liquid chromatography system (Shimadzu, Kyoto, Japan) equipped with an electrospray ionization interface. The mobile phase consisted of 0.1% formic acid in water (A) and 0.1% formic acid in acetonitrile (B). […] The flow rate was 0.2 mL/min. Electrospray ionization was performed in positive-ion mode at 4000 V or in negative-ion mode at -3500 V. […] Quantitation was conducted in selected reaction monitoring (SRM) modes with the precursor-to-product ion transition for each metabolite (Table 1 and Table 2). We analyzed the data with Shimadzu LabSolution LC-MS software. The IC50 values were calculated by WinNonlin software (Pharsight, Mountain View, CA, USA). The type of inhibition and the apparent kinetic parameters for inhibitory activity (Ki) were determined by following several criteria: visual inspection of Dixon plots, Lineweaver-Burk double reciprocal plots, and secondary plots of Lineweaver-Burk plots versus biflavonoid concentrations, the size of the sum of squares of the residuals, Akaike Information Criteria values, the S.E. and 95% confidence interval of the parameter estimates from the nonlinear regression analysis using the WinNonlin software. The models tested included competitive, competitive partial, noncompetitive, noncompetitive partial, uncompetitive, uncompetitive partial, and mixed-type inhibition.
(Liver microsomes are a subcellular fraction often used to study metabolism.)

Another data set deals with T2, CYP2B6 (Homo sapiens, UniProt P20813).
T2 construct: incubation mixtures containing pooled human liver microsomes (HLMs, XTreme 200, XenoTech); tissue XenoTech XTreme 200; host or cells: pooled human liver microsomes
T2 sequence (P20813 1-491): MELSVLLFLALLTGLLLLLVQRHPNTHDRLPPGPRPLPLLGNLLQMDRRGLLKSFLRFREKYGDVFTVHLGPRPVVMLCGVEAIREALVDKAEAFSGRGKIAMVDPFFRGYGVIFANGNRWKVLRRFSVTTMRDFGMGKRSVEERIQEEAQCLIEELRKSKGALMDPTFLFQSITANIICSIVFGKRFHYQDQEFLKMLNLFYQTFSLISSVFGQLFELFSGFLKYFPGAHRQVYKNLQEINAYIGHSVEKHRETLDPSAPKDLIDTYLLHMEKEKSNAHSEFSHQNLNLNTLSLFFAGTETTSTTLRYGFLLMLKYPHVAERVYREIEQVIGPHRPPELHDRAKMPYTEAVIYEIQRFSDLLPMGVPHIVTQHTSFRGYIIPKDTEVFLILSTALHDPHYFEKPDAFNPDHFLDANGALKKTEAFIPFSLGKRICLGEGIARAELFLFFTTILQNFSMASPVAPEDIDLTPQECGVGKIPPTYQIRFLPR
As to the kind of experiment: Inhibition of CYP2B6-catalyzed bupropion hydroxylation in pooled human liver microsomes. The format is in vitro ADME. The method, then: as §1

Where [1] appears, read: substrate phenacetin 100 µM, pooled HLMs, read-out: IC50, P450 1A2.
The mark [2] stands for this setting: substrate bupropion 50 µM, pooled HLMs, read-out: IC50, P450 2B6.
The mark [3] stands for this setting: HLMs, average ± standard error, triplicate.

Where two headings read alike, the source gives them in different places.

As usually defined, the IC50 is the concentration that inhibits the measured activity by half. On to `O=c1cc(-c2ccc(O)c(-c3c(O)cc4oc(-c5ccc(O)cc5)cc(=O)c4c3O)c2)oc2cc(O)cc(O)c12` [robustaflavone], for which the IC50 turned out to be 4.5 µM at CYP1A2 (setting [1]) and 5.7 µM on CYP2B6 (setting [2]).

For `O=c1cc(-c2ccc(O)c(-c3c(-c4ccc(O)cc4)oc4cc(O)cc(O)c4c3=O)c2)oc2cc(O)cc(O)c12` [taiwaniaflavone], the IC50 at CYP1A2 (setting [1]) came out at 6.8 µM; at CYP2B6 (setting [2]), 6.4 µM.

The term Ki denotes the dissociation constant of the complex between target and ligand, obtained from inhibition or displacement. Lower therefore signals higher affinity. With `O=C1CC(c2cc(-c3c(O)ccc4c(=O)cc(-c5ccc(O)cc5)oc34)c(O)cc2O)Oc2cc(O)cc(O)c21` (centres unmarked) [selamariscina A], the “Mode of Inhibition, CYP1A2 phenacetin” value at CYP1A2 (HLMs) is “Competitive”. Also, the Ki on CYP1A2 (setting [3]) turned out to be 3.1 ± 0.6 µM; on CYP2B6 (setting [3]), 7.9 ± 1.1 µM. For the same compound, the IC50 at CYP1A2 (setting [1]) was found to be 7.4 µM; on CYP2B6 (setting [2]) it was 5.3 µM. Also, the “Mode of Inhibition, CYP2B6 bupropion” value at CYP2B6 (HLMs) is listed as “Noncompetitive”.

The inhibition is how much of the control response was suppressed. Read a low inhibition as a weak effect. With `CC(C)(O)c1ccccc1CC[C@@H](SCC1(CC(=O)O)CC1)c1cccc(/C=C/c2ccc3ccc(Cl)cc3n2)c1` [montelukast, reference compound], the IC50 on CYP1A2 (setting [1]) and at CYP2B6 (setting [2]) was > 50 µM in each case. This compound also came in with an inhibition at 10 min, 5 µM against CYP2B6 (human, pooled human liver microsomes, probe bupropion, inhibitor 5 μM, pooled HLMs) of 20.4%.

For `O=c1cc(-c2ccc(O)c(-c3c(O)cc(O)c4c(=O)cc(-c5ccc(O)cc5)oc34)c2)oc2cc(O)cc(O)c12` [amentoflavone], the results for the IC50 against CYP1A2 and against CYP2B6 were 4.4 µM and 7.1 µM, respectively.

In the case of `O=c1cc(-c2ccc(O)cc2)oc2c(-c3c(O)cc(O)c4c(=O)cc(-c5ccc(O)cc5)oc34)c(O)cc(O)c12` [cupressuflavone], the IC50 at CYP1A2 (setting [1]) stood at 5.9 µM; at CYP2B6 (setting [2]) it was 6.7 µM.

For the origin of these results see paper PMC7238120, “Strong and Selective Inhibitory Effects of the Biflavonoid Selamariscina A against CYP2C8 and CYP2C9 Enzyme Activities in Human Liver Microsomes” (Pharmaceutics, 2020).
